According to patent US10287269B2, “Pyrazolyl pyrimidinone compounds as PDE2 inhibitors” (Merck Sharp & Dohme Corp., priority 2015, dated 2019):

target: T1, human PDE2A1 (Homo sapiens, UniProt O00408); experiment: PDE2 IMAP FP inhibition assay, human enzyme (PDE selectivity panel format); format: biochemical; conditions: Lab A; read-out: Human PDE2 Ki (nM) Lab A
T1 construct: GST; purchased BPS Bioscience (San Diego, Calif.) 60020; host or cells: insect cells
Outline: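 GST-tagged human PDE2A1 from insect cells, run at room temperature in 10 mM Tris pH 7.2, 10 mM MgCl2, 1 mM DTT with 50 nM FAM-cAMP plus 1000 nM cGMP for 60 min. IMAP fluorescence polarization read-out; apparent Ki derived using apparent KM 10,000 nM.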

T1 sequence (O00408 1-920 isoform O00408-2): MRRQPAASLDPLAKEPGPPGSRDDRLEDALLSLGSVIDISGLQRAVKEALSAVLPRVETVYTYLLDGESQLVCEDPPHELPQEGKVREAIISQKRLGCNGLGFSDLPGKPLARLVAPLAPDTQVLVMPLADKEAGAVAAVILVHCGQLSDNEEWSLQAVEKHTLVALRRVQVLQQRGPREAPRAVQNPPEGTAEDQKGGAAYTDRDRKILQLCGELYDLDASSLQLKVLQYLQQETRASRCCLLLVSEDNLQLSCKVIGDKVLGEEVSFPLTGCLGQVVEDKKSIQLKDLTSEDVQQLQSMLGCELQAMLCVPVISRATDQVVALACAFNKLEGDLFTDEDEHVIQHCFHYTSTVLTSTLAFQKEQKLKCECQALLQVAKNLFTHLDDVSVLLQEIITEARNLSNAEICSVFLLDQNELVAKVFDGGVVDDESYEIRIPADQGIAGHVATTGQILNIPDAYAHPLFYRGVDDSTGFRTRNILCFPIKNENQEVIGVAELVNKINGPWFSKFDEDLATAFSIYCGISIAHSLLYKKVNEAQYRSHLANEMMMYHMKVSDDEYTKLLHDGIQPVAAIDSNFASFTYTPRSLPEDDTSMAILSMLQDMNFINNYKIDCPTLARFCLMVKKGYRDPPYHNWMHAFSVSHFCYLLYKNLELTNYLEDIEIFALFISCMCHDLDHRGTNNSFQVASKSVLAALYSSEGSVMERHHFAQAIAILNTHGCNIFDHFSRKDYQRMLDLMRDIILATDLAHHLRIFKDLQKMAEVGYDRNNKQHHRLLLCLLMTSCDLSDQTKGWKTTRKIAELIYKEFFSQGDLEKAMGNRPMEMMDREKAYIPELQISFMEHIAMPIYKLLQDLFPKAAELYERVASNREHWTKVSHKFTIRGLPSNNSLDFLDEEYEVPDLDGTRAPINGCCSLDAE

Q: With `Cc1nc(-c2cnn(C(c3ccc(C(F)(F)F)cc3F)C(C)C)c2)cc(=O)[nH]1` (stereo not drawn) [Example 34, 6-(1-(1-(2-fluoro-4-(trifluoromethyl)phenyl)-2-methylpropyl)-1H-pyrazol-4-yl)-2-methylpynmidin-4(3H)-one] as the compound, how does the Ki read?
A: 44.6 nM

Q: How did the Ki turn out when `CC(c1ccc(C(F)(F)F)cc1F)n1cc(-c2cc(=O)[nH]c(Cc3ccccc3)n2)cn1` (stereo not drawn) [Example 35, 2-benzyl-6-(1-(1-(2-fluoro-4-(trifluoromethyl)phenyl)ethyl)-1H-pyrazol-4-yl)pyrimidin-4(3H)-one] was run?
A: 60.4 nM

Q: With `CCc1nc(-c2cnn(C(C)c3ccc(C(F)(F)F)cc3F)c2)cc(=O)[nH]1` (stereo not drawn) [Example 36, 2-ethyl-6-(1-(1-(2-fluoro-4-(trifluoromethyl)phenyl)ethyl)-1H-pyrazol-4-yl)pyrimidin-4(3H)-one] as the compound, how does the Ki read?
A: 17.2 nM

Q: Which Ki does the source give for `Cc1nc(-c2cnn(C3(c4ccc(C(F)(F)F)cc4F)CCC3)c2)cc(=O)[nH]1` [Example 37, 6-(1-(1-(2-fluoro-4-(trifluoromethyl)phenyl)cyclobutyl)-1H-pyrazol-4-yl)-2-methylpyrimidin-4(3H)-one] here?
A: 7.9 nM

Q: For `COc1ccc(Cc2nc(-n3cc(C(C)c4ccc(C(F)(F)F)cc4)cn3)cc(=O)[nH]2)cc1OC` (stereo not drawn) [Example 137, 2-(3,4-dimethoxybenzyl)-6-(4-(1-(4-(trifluoromethyl)phenyl)ethyl)-1H-pyrazol-1-yl)pyrimidin-4(3H)-one], which Ki is on record?
A: 1 nM

Q: How did the Ki turn out when `Cc1ccc(C(C)n2cc(-c3cc(=O)[nH]c(C)n3)cn2)cc1` (stereo not drawn) [Example 153, 2-methyl-6-(1-(1-(p-tolyl)ethyl)-1H-pyrazol-4-yl)pyrimidin-4(3H)-one] was run?
A: 1240 nM

same assay, conditions: Lab B; read-out: Human PDE2 Ki (nM) Lab B

Q: With `Cc1nc(-n2cc(C(C)c3ccc(C4CC4)cc3)cn2)cc(=O)[nH]1` (stereo not drawn) [Example 39, 6-(4-(1-(4-cyclopropylphenyl)ethyl)-1H-pyrazol-1-yl)-2-methylpyrimidin-4(3H)-one] as the compound, how does the Ki read?
A: 35.3 nM

Q: For `Cc1nc(-n2cc(C(C)c3ccc(C4(C)CC4)cc3)cn2)cc(=O)[nH]1` (stereo not drawn) [Example 40, 2-methyl-6-(4-(1-(4-(1-methylcyclopropyl)phenyl)ethyl)-1H-pyrazol-1-yl)pyrimidin-4(3H)-one], which Ki is on record?
A: 197 nM

Q: `Cc1nc(-n2cc(Cc3ccc(C(F)(F)F)cc3)cn2)cc(=O)[nH]1` [Example 48, 2-methyl-6-(4-(4-(trifluoromethyl)benzyl)-1H-pyrazol-1-yl)pyrimidin-4(3H)-one] was tested. Which Ki did it give?
A: 219 nM

Q: For `Cc1nc(-c2cn(C(C)c3ccc(C(F)(F)F)cc3)nc2C)cc(=O)[nH]1` (stereo not drawn) [Example 80, 2-methyl-6-(3-methyl-1-(1-(4-(trifluoromethyl)phenyl)ethyl)-1H-pyrazol-4-yl)pyrimidin-4(3H)-one], which Ki is on record?
A: 140 nM

Q: How did the Ki turn out when `Cc1nc(-c2cnn(C(C)c3ccc(C(F)(F)F)cc3)c2)cc(=O)[nH]1` (stereo not drawn) [Example 126, 2-methyl-6-(1-(1-(4-(trifluoromethyl)phenyl)ethyl)-1H-pyrazol-4-yl)pyrimidin-4(3H)-one] was run?
A: 233 nM

Q: How did the Ki turn out when `CCC(c1ccc(C(F)(F)F)cc1)c1cnn(-c2cc(=O)[nH]c(C)n2)c1` (stereo not drawn) [Example 129, 2-methyl-6-(4-(1-(4-(trifluoromethyl)phenyl)propyl)-1H-pyrazol-1-yl)pyrimidin-4(3H)-one] was run?
A: 141 nM

Q: With `Cc1nc(-n2cc(C(c3ccc(C(F)(F)F)cc3)C(C)C)cn2)cc(=O)[nH]1` (stereo not drawn) [Example 130] as the compound, how does the Ki read?
A: 87.6 nM

Q: How did the Ki turn out when `COc1ccc(Cc2nc(-n3cc(C(C)c4ccc(C(F)(F)F)cc4)cn3)cc(=O)[nH]2)cc1OC` (stereo not drawn) [Example 137, 2-(3,4-dimethoxybenzyl)-6-(4-(1-(4-(trifluoromethyl)phenyl)ethyl)-1H-pyrazol-1-yl)pyrimidin-4(3H)-one] was run?
A: 0.4 nM

Q: For `CCCC(c1ccc(C(F)(F)F)cc1)n1cc(-c2cc(=O)[nH]c(C)n2)cn1` (stereo not drawn) [Example 154, 2-methyl-6-(1-(1-(4-(trifluoromethyl)phenyl)butyl)-1H-pyrazol-4-yl)pynmidin-4(3H)-one], which Ki is on record?
A: 265 nM
